Measurements as given in paper PMC7544826 (Communications Biology, 2020).

Tests used:
[1] = in vivo; cited from earlier work
[2] = test system: Wnt3a-dependent TCF/LEF activation; experiment: TOP-FLASH luciferase assay without the addition of Notum (control); type: cell-based; settings: concentrations up to 1 mM, no Notum added
Description: . OPTS is a common lipase substrate with an octanoyl lipid linked to a fluorescent moiety. It is not a natural Notum substrate; however, it can be used to quantify the enzymatic activity of purified Notum protein[23],[25],[28]. […]. […]. […]. The stable HEK293 STF cell line[31] carrying the Super Top Flash firefly luciferase reporter was split into 96-well plates and transfected 24 h later with a constitutive Renilla luciferase plasmid (pRL-TK, Promega) at 20 ng DNA per well using Lipofectamine 2000 (Life Technologies, UK). The media were replaced with test media 16 h later. […] The firefly and Renilla luciferase activities were measured 24 h later with Dual-Glo luciferase reporter assay system (Promega, Madison, WI) using an Ascent Lunimoskan luminometer (Labsystems). The firefly luciferase activity was normalized to Renilla luciferase activity (relative light unit, RLU). Luciferase reporter assays were performed in triplicate.
Supplementary Figure 1. […].

Notum [3] = target: T1, Notum (Homo sapiens, UniProt Q6P988, C330S); experiment: Thermal shift assay (SYPRO Orange) of Notum; settings: for Thermoflour melting curve fluorescence of Notum: Fig 2c
T1 sequence (Q6P988 81-451 C330S): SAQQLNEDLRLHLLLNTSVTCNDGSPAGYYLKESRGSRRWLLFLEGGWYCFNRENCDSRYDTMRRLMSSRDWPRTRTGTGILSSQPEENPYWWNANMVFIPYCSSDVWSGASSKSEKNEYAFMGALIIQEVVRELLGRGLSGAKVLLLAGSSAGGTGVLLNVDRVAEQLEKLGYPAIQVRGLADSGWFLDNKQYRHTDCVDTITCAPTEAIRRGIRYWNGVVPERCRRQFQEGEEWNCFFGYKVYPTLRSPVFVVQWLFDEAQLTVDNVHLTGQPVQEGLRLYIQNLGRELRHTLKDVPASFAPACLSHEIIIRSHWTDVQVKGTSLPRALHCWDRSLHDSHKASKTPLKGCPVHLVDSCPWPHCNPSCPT
Description: Reference wells, i.e. solutions without compounds were used to compare the melting temperature (Tm). The experiments were performed in triplicate.

Notum [4] = target: T1, Notum; experiment: SPR equilibrium binding to biotinylated Notum on streptavidin chip; design: The human Notum enzyme core comprising amino acids S81–T451 with a C330S mutation; made in house; dialyzed conditioned medium used without purification; settings: Fig 2a

Cn1c(=O)c2c(ncn2C)n(C)c1=O [caffeine, 1,3,7-trimethylxanthine]
Plasma concentration at therapeutic use [1]: ≤ 150 µM
Effect on Wnt3a-induced luciferase activity without Notum [2]: did not affect luciferase activity
Melting temperature (Tm) of Notum (Notum [3]): 66.4 °C
Concentration from which the Tm of Notum starts to increase (Notum [3]; 2-fold dilution series 1-1000 µM, dose-dependent): 32 µM
Thermoflour melting curve fluorescence of Notum (Notum [3]; compound 500 µM, Temperature 24.5): 709.927
Thermoflour melting curve fluorescence of Notum (Notum [3]; compound 500 µM, Temperature 25.5): 611.276
Thermoflour melting curve fluorescence of Notum (Notum [3]; compound 500 µM, Temperature 26.5): 506.395
Thermoflour melting curve fluorescence of Notum (Notum [3]; compound 500 µM, Temperature 27.5): 407.771
Thermoflour melting curve fluorescence of Notum (Notum [3]; compound 500 µM, Temperature 28.5): 329.046
Thermoflour melting curve fluorescence of Notum (Notum [3]; compound 500 µM, Temperature 29.5): 252.252
Thermoflour melting curve fluorescence of Notum (Notum [3]; compound 500 µM, Temperature 30.5): 185.878
Thermoflour melting curve fluorescence of Notum (Notum [3]; compound 500 µM, Temperature 31.5): 116.312
Thermoflour melting curve fluorescence of Notum (Notum [3]; compound 500 µM, Temperature 32.5): 36.8288
Thermoflour melting curve fluorescence of Notum (Notum [3]; compound 500 µM, Temperature 33.5): -33.9223
Thermoflour melting curve fluorescence of Notum (Notum [3]; compound 500 µM, Temperature 34.5): -98.3184
Thermoflour melting curve fluorescence of Notum (Notum [3]; compound 500 µM, Temperature 35.5): -160.078
Thermoflour melting curve fluorescence of Notum (Notum [3]; compound 500 µM, Temperature 36.5): -227.439
Thermoflour melting curve fluorescence of Notum (Notum [3]; compound 500 µM, Temperature 37.5): -299.113
Thermoflour melting curve fluorescence of Notum (Notum [3]; compound 500 µM, Temperature 38.5): -356.595
Thermoflour melting curve fluorescence of Notum (Notum [3]; compound 500 µM, Temperature 39.5): -384.234
Thermoflour melting curve fluorescence of Notum (Notum [3]; compound 500 µM, Temperature 40.5): -401.667
Thermoflour melting curve fluorescence of Notum (Notum [3]; compound 500 µM, Temperature 41.5): -422.587
Thermoflour melting curve fluorescence of Notum (Notum [3]; compound 500 µM, Temperature 42.5): -436.447
Thermoflour melting curve fluorescence of Notum (Notum [3]; compound 500 µM, Temperature 43.5): -433.953
Thermoflour melting curve fluorescence of Notum (Notum [3]; compound 500 µM, Temperature 44.5): -407.23
Thermoflour melting curve fluorescence of Notum (Notum [3]; compound 500 µM, Temperature 45.5): -370.506
Thermoflour melting curve fluorescence of Notum (Notum [3]; compound 500 µM, Temperature 46.5): -329.743
Thermoflour melting curve fluorescence of Notum (Notum [3]; compound 500 µM, Temperature 47.5): -279.561
Thermoflour melting curve fluorescence of Notum (Notum [3]; compound 500 µM, Temperature 48.5): -224.386
Thermoflour melting curve fluorescence of Notum (Notum [3]; compound 500 µM, Temperature 49.5): -154.955
Thermoflour melting curve fluorescence of Notum (Notum [3]; compound 500 µM, Temperature 50.5): -68.5872
Thermoflour melting curve fluorescence of Notum (Notum [3]; compound 500 µM, Temperature 51.5): 21.0565
Thermoflour melting curve fluorescence of Notum (Notum [3]; compound 500 µM, Temperature 52.5): 104.977
Thermoflour melting curve fluorescence of Notum (Notum [3]; compound 500 µM, Temperature 53.5): 203.138
Thermoflour melting curve fluorescence of Notum (Notum [3]; compound 500 µM, Temperature 54.5): 335.417
Thermoflour melting curve fluorescence of Notum (Notum [3]; compound 500 µM, Temperature 55.5): 489.845
Thermoflour melting curve fluorescence of Notum (Notum [3]; compound 500 µM, Temperature 56.5): 650.176
Thermoflour melting curve fluorescence of Notum (Notum [3]; compound 500 µM, Temperature 57.5): 838.955
Thermoflour melting curve fluorescence of Notum (Notum [3]; compound 500 µM, Temperature 58.5): 1115.22
Thermoflour melting curve fluorescence of Notum (Notum [3]; compound 500 µM, Temperature 59.5): 1497.71
Thermoflour melting curve fluorescence of Notum (Notum [3]; compound 500 µM, Temperature 60.5): 2046.51
Thermoflour melting curve fluorescence of Notum (Notum [3]; compound 500 µM, Temperature 61.5): 2842.67
Thermoflour melting curve fluorescence of Notum (Notum [3]; compound 500 µM, Temperature 62.5): 4016.35
Thermoflour melting curve fluorescence of Notum (Notum [3]; compound 500 µM, Temperature 63.5): 5616.14
Thermoflour melting curve fluorescence of Notum (Notum [3]; compound 500 µM, Temperature 64.5): 7625.37
Thermoflour melting curve fluorescence of Notum (Notum [3]; compound 500 µM, Temperature 65.5): 9844.37
Thermoflour melting curve fluorescence of Notum (Notum [3]; compound 500 µM, Temperature 66.5): 11980.7
Thermoflour melting curve fluorescence of Notum (Notum [3]; compound 500 µM, Temperature 67.5): 13878
Thermoflour melting curve fluorescence of Notum (Notum [3]; compound 500 µM, Temperature 68.5): 15429.9
Thermoflour melting curve fluorescence of Notum (Notum [3]; compound 500 µM, Temperature 69.5): 16655.6
Thermoflour melting curve fluorescence of Notum (Notum [3]; compound 500 µM, Temperature 70.5): 17623.3
Thermoflour melting curve fluorescence of Notum (Notum [3]; compound 500 µM, Temperature 71.5): 18396.4
Thermoflour melting curve fluorescence of Notum (Notum [3]; compound 500 µM, Temperature 72.5): 18998.9
Thermoflour melting curve fluorescence of Notum (Notum [3]; compound 500 µM, Temperature 73.5): 19494.1
Thermoflour melting curve fluorescence of Notum (Notum [3]; compound 500 µM, Temperature 74.5): 19890
Thermoflour melting curve fluorescence of Notum (Notum [3]; compound 500 µM, Temperature 75.5): 20222.9
Thermoflour melting curve fluorescence of Notum (Notum [3]; compound 500 µM, Temperature 76.5): 20511.4
Thermoflour melting curve fluorescence of Notum (Notum [3]; compound 500 µM, Temperature 77.5): 20720.5
Thermoflour melting curve fluorescence of Notum (Notum [3]; compound 500 µM, Temperature 78.5): 20881
Thermoflour melting curve fluorescence of Notum (Notum [3]; compound 500 µM, Temperature 79.5): 21035.4
Thermoflour melting curve fluorescence of Notum (Notum [3]; compound 500 µM, Temperature 80.5): 21171.7
Thermoflour melting curve fluorescence of Notum (Notum [3]; compound 500 µM, Temperature 81.5): 21266.6
Thermoflour melting curve fluorescence of Notum (Notum [3]; compound 500 µM, Temperature 82.5): 21332.1
Thermoflour melting curve fluorescence of Notum (Notum [3]; compound 500 µM, Temperature 83.5): 21375.7
Thermoflour melting curve fluorescence of Notum (Notum [3]; compound 500 µM, Temperature 84.5): 21418.3
Thermoflour melting curve fluorescence of Notum (Notum [3]; compound 500 µM, Temperature 85.5): 21484.5
Thermoflour melting curve fluorescence of Notum (Notum [3]; compound 500 µM, Temperature 86.5): 21557.9
Thermoflour melting curve fluorescence of Notum (Notum [3]; compound 500 µM, Temperature 87.5): 21630
Thermoflour melting curve fluorescence of Notum (Notum [3]; compound 500 µM, Temperature 88.5): 21668.9
Thermoflour melting curve fluorescence of Notum (Notum [3]; compound 500 µM, Temperature 89.5): 21631
Thermoflour melting curve fluorescence of Notum (Notum [3]; compound 500 µM, Temperature 90.5): 21594.2
Thermoflour melting curve fluorescence of Notum (Notum [3]; compound 500 µM, Temperature 91.5): 21585.2
Thermoflour melting curve fluorescence of Notum (Notum [3]; compound 500 µM, Temperature 92.5): 21573.1
Thermoflour melting curve fluorescence of Notum (Notum [3]; compound 500 µM, Temperature 93.5): 21559.5
Thermoflour melting curve fluorescence of Notum (Notum [3]; compound 500 µM, Temperature 94.5): 21527.2
Thermoflour melting curve fluorescence of Notum (Notum [3]; compound 500 µM, Temperature 95.5): 21485.4
Thermoflour melting curve fluorescence of Notum (Notum [3]; compound 500 µM, Temperature 96.5): 21486.2
Thermoflour melting curve fluorescence of Notum (Notum [3]; compound 500 µM, Temperature 97.5): 21505.1
∆Tm of Notum (Notum [3]; compound 500 µM, versus Notum without compounds): 2.8 °C
SPR Response (Notum [4]; caffeine conc. 2.861e-8 (unit not given)): 1.14
SPR Response (Notum [4]; caffeine conc. 5.722e-8 (unit not given)): 2.29
SPR Response (Notum [4]; caffeine conc. 1.144e-7 (unit not given)): 3.61
SPR Response (Notum [4]; caffeine conc. 2.289e-7 (unit not given)): 4.16
SPR Response (Notum [4]; caffeine conc. 4.578e-7 (unit not given)): 4.74
SPR Response (Notum [4]; caffeine conc. 9.155e-7 (unit not given)): 5.58
SPR Response (Notum [4]; caffeine conc. 1.831e-6 (unit not given)): 6.88
SPR Response (Notum [4]; caffeine conc. 3.662e-6 (unit not given)): 9.64
SPR Response (Notum [4]; caffeine conc. 7.324e-6 (unit not given)): 12.15
SPR Response (Notum [4]; caffeine conc. 1.465e-5 (unit not given)): 16.8
SPR Response (Notum [4]; caffeine conc. 2.93e-5 (unit not given)): 23.59
SPR Response (Notum [4]; caffeine conc. 5.859e-5 (unit not given)): 31.69
SPR Response (Notum [4]; caffeine conc. 0.0001172 (unit not given)): 41.28
SPR Response (Notum [4]; caffeine conc. 0.0002344 (unit not given)): 50.77
SPR Response (Notum [4]; caffeine conc. 0.0004687 (unit not given)): 61.29
SPR Response (Notum [4]; caffeine conc. 0.0009375 (unit not given)): 71.68
SPR Response (Notum [4]; caffeine conc. 0.001875 (unit not given)): 81.69
